Measurements reported in US9790207B2, “Pan-genomic inhibitors of NS5A protein encoded by HCV, pharmaceutical compositions, intermediates for inhibitor synthesis, and their synthesis and application methods” (priority 2015, dated 2017).
Structures can show the parent of a compound that is named as a salt. Where two headings read alike, the source gives them in different places.

What was measured:
HCV Genotype NS5A GT1b = conditions: known inhibitors, literature values; cited from earlier work
HCV Genotype NS5A GT4a = conditions: known inhibitors, literature values; cited from earlier work
HCV Genotype NS5A GT1a = conditions: known inhibitors, literature values; cited from earlier work
HCV Genotype NS5A GT3a = conditions: known inhibitors, literature values, cited from earlier work
HCV Genotype NS5A GT2a = conditions: known inhibitors, literature values, cited from earlier work
HCV Genotype NS5A GT5a = conditions: known inhibitors, literature values; cited from earlier work
[1] = Cytotoxicity, cell viability by ATPLite Kit; type: cell-based, human; conditions: human, Huh7 cells (human hepatoma cell line), 10% FBS, maximal inhibition, read-out: Cytotox gT1b 10% FBS max. inh.
Experimental: (§1) The cytotoxicity of the test compounds was studied in parallel using the same cell line, Huh7. Cell viability was determined using the ATPLite Kit (Perkin-Elmer, Boston, USA), according to manufacturer's instructions. 96-well black/transparent bottom plates were seeded with cells at a density of 7.5×10^3 cells per well in 50 μl medium. After 18 hours, compound treatment was initiated by adding 50 μl of compound dilution into the plates. Each compound dilution was tested in triplicates. The cells and inhibitors were then incubated for 96 hours at 37° C./5% CO2. The plates were washed twice with PBS (0.2 ml/well), and then lysed by adding lysis buffer, 0.05 ml/well (all reagents were included with the ATPLite Kit). After rocking for 5 min on a rocking platform, substrate buffer was added (0.05 ml/well). After additional 5-min incubation, the plates were kept in dark for 10 min, and the luminescence was read using TopCount NXT (Packard, Perkin Elmer). CC50 values for all test compounds were determined using XLfit 4.1 software (Table 2).

HCV gT1a replicon = assay: HCV replicon assay, gT1a; type: cell-based, Hepatitis C virus (HCV); conditions: Huh7 replicon cells, mean
Experimental: (§2) The HCV replicon assay was used to determine the antiviral activity of compounds of general formula 2 (test compounds). The test cell line used in the HCV Replicon Assay was the human hepatoma cell line Huh7 incorporating the HCV replicons synthesized by an outside vendor.
(§3) 96-well plates were seeded with cells at a density of 7.5×10^3 cells per well in 50 μl of assay media. The compound stock solution was made up freshly in an assay medium (DMEM 1×, Cellgro; cat. #10-013-CV) as a 2× stock. A total of 11 serial 3-fold dilutions of test compounds were prepared from the 2× stock in the assay media ranging from 20 nM-0.2 pM final concentrations. At least 4 hours after seeding the cells, compound treatment was initiated by adding 50 μl of compound dilution to the plates. The final concentrations of compound therefore ranged from 10 nM to 0.1 pM when diluted 1:1 in culture media. The final DMSO concentration was 0.5%. Cells and inhibitors were incubated for 3 days at 37° C./5% CO2. The media was removed from the plates by gentle tapping. The cells were fixed with 100 μl 1:1 acetone:methanol for 1 minute, washed three times with PBS buffer, and then blocked with 150 μl/well 10% Fetal Bovine Serum (FBS) in PBS for 1 hour at room temperature. The cells were then washed three times with PBS buffer and incubated with 100 μl/well anti-hepatitis C core mAb (Affinity BioReagents; cat. # MA1-080, 1 mg/ml stock diluted 1:4,000 in 10% FBS-PBS) for 2 hours at 37° C. Then, the cells were washed three times with PBS and incubated with 100 μl/well HRP-Goat Anti-Mouse antibody (diluted 1:3.500 in 10% FBS-PBS) for 1 hour at 37° C. The cells were then washed three times with PBS and developed with an OPD solution, 100 μl/well (1 OPD tablet+12 ml citrate/phosphate buffer+5 μl 30% H2O2 per plate), for 30 minutes in the dark at room temperature. The reaction was stopped with 2N H2SO4 (100 μl/well), and the absorbance was measured at A490 X on a Victor^3 V 1420 multilabel counter (Perkin Elmer).

HCV gT3a replicon = assay: HCV replicon assay, gT3a; type: cell-based, Hepatitis C virus (HCV); conditions: mean, read-out: gT3a, EC50 (pM) mean
Experimental: as §2, §3

[2] = Bioavailability of new inhibitors in rats; conditions: rat, in vivo
HCV gT1b replicon = assay: HCV replicon assay, gT1b; type: cell-based, Hepatitis C virus (HCV); conditions: Huh7 replicon cells, mean value
Experimental: as §2, §3

HCV gT4a replicon = assay: HCV replicon assay, gT4a; type: cell-based, Hepatitis C virus (HCV)
Experimental: as §2, §3

HCV gT2a replicon = assay: HCV replicon assay, gT2a; type: cell-based, Hepatitis C virus (HCV); conditions: Huh7 replicon cells, mean
Experimental: as §2, §3

HCV gT5a replicon = assay: HCV replicon assay, gT5a; type: cell-based, Hepatitis C virus (HCV)
Experimental: as §2, §3

[3] = known inhibitors, literature values; cited from earlier work
[4] = test system: human hepatoma cell line Huh7; assay: Cytotoxicity, cell viability by ATPLite Kit; type: cell-based; conditions: 96 hours, maximal inhibition
Experimental: as §1

[5] = Hepatitis C virus, GT3A, Huh-7, Huh7 replicon cells
[6] = Hepatitis C virus, GT1B, Huh-7, 10% FBS, read-out: gT1b 10% FBS, EC50 (pM) mean
[7] = Hepatitis C virus, GT1B, Huh-7, 40% NHS, read-out: gT1b 40% NHS, EC50 (pM) mean
[8] = Hepatitis C virus, GT4A, Huh-7, read-out: gT4a, EC50 (pM) mean
[9] = Hepatitis C virus, GT5A, Huh-7, read-out: gT5a, EC50 (pM) mean

| SMILES | EC50 (HCV Genotype NS5A GT1b) [pM] | EC50 (HCV Genotype NS5A GT4a) [pM] | EC50 (HCV Genotype NS5A GT1a) [pM] | EC50 (HCV Genotype NS5A GT2a) [pM] | inhibition at 96 h [1] [%] | EC50 (HCV gT1a replicon; Hepatitis C virus, GT1A, Huh-7) [pM] | EC50 (HCV gT3a replicon; [5]) [pM] | EC50 (HCV gT1b replicon; [6]) [pM] | EC50 (HCV gT1b replicon; [7]) [pM] | EC50 (HCV gT4a replicon; [8]) [pM] | EC50 (HCV gT2a replicon; Hepatitis C virus, GT2A, Huh-7) [pM] | EC50 (HCV gT5a replicon; [9]) [pM] | other results |
| --- | --- | --- | --- | --- | --- | --- | --- | --- | --- | --- | --- | --- | --- |
| COC(=O)N[C@H](C(=O)N1CC2(CC2)C[C@H]1c1nc(-c2ccc3c(c2)C(F)(F)c2cc(-c4ccc5[nH]c([C@@H]6[C@H]7CC[C@H](C7)N6C(=O)[C@@H](NC(=O)OC)C(C)C)nc5c4)ccc2-3)c[nH]1)C(C)C [Ledipasvir] | 5 | 7 | 31 | 20.8 | – | – | – | – | – | – | – | – | EC50 (HCV Genotype NS5A GT3a): 10.1 pM; EC50, pM HCV Genotype NS5A GT3a (HCV Genotype NS5A GT3a): insufficient activities; EC50 (HCV Genotype NS5A GT3a; listed as Ledipasvir (GS-5885)): 10100 pM; EC50 (HCV Genotype NS5A GT2a; listed as Ledipasvir (GS-5885)): 20800 pM; EC50, pM HCV Genotype NS5A GT5a (HCV Genotype NS5A GT5a): insufficient activities |
| COC(=O)N[C@H](C(=O)N1CCC[C@H]1c1ncc(-c2ccc(C#CC#Cc3cnc([C@@H]4CCCN4C(=O)[C@H](NC(=O)OC)c4ccccc4)[nH]3)c(-c3ccccc3)c2)[nH]1)C(C)C.Cl.Cl [2(7)•2HCl, [(S)-1-((S)-2-{5-[6-(4-{2-[(S)-1-((R)-2-Methoxycarbonylamino-2-phenyl-acetyl)-pyrrolidin-2-yl]-3H-imidazol-4-yl}-buta-1,3-diynyl)-biphenyl-3-yl]-1H-imidazol-2-yl}-pyrrolidine-1-carbonyl)-2-methyl-propyl]-carbamic acid methyl ester dihydrochloride] | – | – | – | – | 32 | 22.5 | 23 | 1.92 | 12.6 | 8.5 | 5.9 | 19.8 | bioavailability [2]: 31% |
| COC(=O)N[C@H](C(=O)N1CCC[C@H]1c1ncc(C#CC#Cc2ccc(-c3cnc([C@@H]4CCCN4C(=O)[C@@H](NC(=O)OC)C(C)C)[nH]3)cc2)[nH]1)C(C)C [AV-4025, Hepavivir] | 3.4 | 12 | 59 | 51 | – | – | – | – | – | – | – | – | Bioavailability in rat, F, % [3]: 65.0%; EC50, pM HCV Genotype NS5A GT3a (HCV Genotype NS5A GT3a): insufficient activities; EC50 (HCV Genotype NS5A GT5a): 172 pM; EC50, pM HCV Genotype NS5A GT5a (HCV Genotype NS5A GT5a): insufficient activities |
| COC(=O)N[C@H](C(=O)N1CCC[C@H]1c1ncc(-c2ccc(C#CC#Cc3cnc([C@@H]4CCCN4C(=O)[C@H](NC(=O)OC)c4ccccc4)[nH]3)c(-c3ccc(N(C)C)cc3)c2)[nH]1)C(C)C.Cl.Cl.Cl [2(14)•2HCl, [(S)-1-((S)-2-{5-[4′-Dimethylamino-6-(4-{2-[(S)-1-((R)-2-methoxycarbonylamino-2-phenyl-acetyl)-pyrrolidin-2-yl]-3H-imidazol-4-yl}-buta-1,3-diynyl)-biphenyl-3-yl]-1H-imidazol-2-yl}-pyrrolidine-1-carbonyl)-2-methyl-propyl]-carbamic acid methyl ester troihydrochloride] | – | – | – | – | – | – | – | – | – | – | – | – | Cytotox gT1b 10% FBS max. inh. [4]: 23%; EC50 (HCV gT1a replicon): 138 pM; EC50 (HCV gT3a replicon; Huh7 replicon cells): 38.5 pM; EC50 (HCV gT1b replicon; 10% FBS, read-out: gT1b 10% FBS, EC50 (pM) mean): 1.51 pM; EC50 (HCV gT1b replicon; 40% NHS, read-out: gT1b 40% NHS, EC50 (pM) mean): 13 pM; EC50 (HCV gT4a replicon; Huh7 replicon cells, mean, read-out: gT4a, EC50 (pM) mean): 10.8 pM; EC50 (HCV gT2a replicon): 12.8 pM; EC50 (HCV gT5a replicon; Huh7 replicon cells, mean, read-out: gT5a, EC50 (pM) mean): 52 pM |
| COC(=O)N[C@H](C(=O)N1CCC[C@H]1c1ncc(-c2cc(C)c(-c3ccc(-c4cnc([C@@H]5CCCN5C(=O)[C@H](NC(=O)OC)c5ccccc5)[nH]4)cc3)c(-c3ccccc3)c2)[nH]1)C(C)C [2(27)•2HCl, ((S)-1-{(S)-2-[5-(4-{2-[(S)-1-((R)-2-Methoxycarbonylamino-2-phenyl-acetyl)-pyrrolidin-2-yl]-3H-imidazol-4-yl}-6′-methyl-[1,1′;2′,1″]terphenyl-4′-yl)-1H-imidazol-2-yl]-pyrrolidine-1-carbonyl}-2-methyl-propyl)-carbamic acid methyl ester dihydrochloride] | – | – | – | – | 31 | 203 | 25.2 | 5.1 | 14.5 | 12.3 | 7.9 | 25.8 | – |
| COC(=O)N[C@H](C(=O)N1CCC[C@H]1c1ncc(-c2cc(C)c(C#CC#Cc3cnc([C@@H]4CCCN4C(=O)[C@H](NC(=O)OC)c4ccccc4)[nH]3)c(-c3ccccc3)c2)[nH]1)C(C)C [2(18)•2HCl, [(S)-1-((S)-2-{5-[6-(4-{2-[(S)-1-((R)-2-Methoxycarbonylamino-2-phenyl-acetyl)-pyrrolidin-2-yl]-3H-imidazol-4-yl}-buta-1,3-diynyl)-5-methyl-biphenyl-3-yl]-1H-imidazol-2-yl}-pyrrolidine-1-carbonyl)-2-methyl-propyl]-carbamic acid methyl ester dihydrochloride] | – | – | – | – | 12 | 124 | 26 | 1.89 | 10.9 | 9.6 | 3 | 19.2 | – |
| COC(=O)N[C@H](C(=O)N1CCC[C@H]1c1ncc(-c2ccc(C#CC#Cc3cnc([C@@H]4CCCN4C(=O)[C@H](NC(=O)OC)c4ccccc4)[nH]3)c(N(C)c3ccccc3)c2)[nH]1)C(C)C [2(21)•2HCl, [(S)-1-((S)-2-{5-[4-(4-{2-[(S)-1-((R)-2-Methoxycarbonylamino-2-phenyl-acetyl)-pyrrolidin-2-yl]-3H-imidazol-4-yl}-buta-1,3-diynyl)-3-(methyl-phenyl-amino)-phenyl]-1H-imidazol-2-yl}-pyrrolidine-1-carbonyl)-2-methyl-propyl]-carbamic acid methyl ester trihydrochloride] | – | – | – | – | 14 | 72 | 35.1 | 1.79 | 14.2 | 11 | 10.6 | 26.6 | – |
| COC(=O)N[C@H](C(=O)N1CCC[C@H]1C(=O)Nc1ccc([C@@H]2CC[C@@H](c3ccc(NC(=O)[C@@H]4CCCN4C(=O)[C@@H](NC(=O)OC)C(C)C)cc3)N2c2ccc(C(C)(C)C)cc2)cc1)C(C)C [Ombitasvir] | 5 | 1.7 | 14.1 | 12.4 | – | – | – | – | – | – | – | – | EC50 (HCV Genotype NS5A GT3a): 19.3 pM; EC50 (HCV Genotype NS5A GT5a): 4.3 pM |
